# Experimental data as given in article PMC3269548 (Neuropharmacology, 2011).
# “And” between values parts separate entries of the source, which are not always exact repeats. Identical values can stand only once. “Also recorded” adds a separate entry of the source. Like-named read-outs stand apart in the source and are kept apart here.
# Assays:
# [1] = target: GluN1/GluN2A NMDA receptor (Rattus norvegicus, UniProt P35439+Q00959); format: cell-based; settings: for IC50: IC50 GluN1/GluN2A
# [2] = target: GluN1/GluN2D NMDA receptor (Rattus norvegicus, UniProt P35439+Q62645); format: cell-based; settings: for IC50: IC50 GluN1/GluN2D
# AMPA receptors = experiment: Preliminary studies of antagonist activity at AMPA receptors
# [3] = system: GluN1/GluN2A-D NMDA receptors; format: cell-based
# [4] = system: GluN1/GluN2A receptors with the NTD deleted on both the GluN1 and GluN2 subunits; experiment: Inhibition of NTD-deleted GluN1/GluN2A receptor responses in Xenopus oocytes; format: cell-based
# [5] = target: GluN1/GluN2B NMDA receptor (Rattus norvegicus, UniProt P35439+Q00960); format: cell-based; settings: 10 μM L-glutamate plus 10 μM glycine, ± s.e.m., n ≥ 4
# [6] = system: GluN1/GluN2D receptors with the NTD deleted on both the GluN1 and GluN2 subunits; experiment: Inhibition of NTD-deleted GluN1/GluN2D receptor responses in Xenopus oocytes; format: cell-based
# [7] = target: GluN1/GluN2C NMDA receptor (Rattus norvegicus, UniProt P35439+Q00961); format: cell-based; settings: 10 μM L-glutamate plus 10 μM glycine, ± s.e.m., n ≥ 4
# [8] = 10 μM L-glutamate plus 10 μM glycine, ± s.e.m., n ≥ 4
# [9] = 10 μM L-glutamate plus 10 μM glycine, −60 mV, ± s.e.m., n ≥ 4
# Chain of GluN1/GluN2B NMDA receptor (Q00960 27-1482, other chains not shown): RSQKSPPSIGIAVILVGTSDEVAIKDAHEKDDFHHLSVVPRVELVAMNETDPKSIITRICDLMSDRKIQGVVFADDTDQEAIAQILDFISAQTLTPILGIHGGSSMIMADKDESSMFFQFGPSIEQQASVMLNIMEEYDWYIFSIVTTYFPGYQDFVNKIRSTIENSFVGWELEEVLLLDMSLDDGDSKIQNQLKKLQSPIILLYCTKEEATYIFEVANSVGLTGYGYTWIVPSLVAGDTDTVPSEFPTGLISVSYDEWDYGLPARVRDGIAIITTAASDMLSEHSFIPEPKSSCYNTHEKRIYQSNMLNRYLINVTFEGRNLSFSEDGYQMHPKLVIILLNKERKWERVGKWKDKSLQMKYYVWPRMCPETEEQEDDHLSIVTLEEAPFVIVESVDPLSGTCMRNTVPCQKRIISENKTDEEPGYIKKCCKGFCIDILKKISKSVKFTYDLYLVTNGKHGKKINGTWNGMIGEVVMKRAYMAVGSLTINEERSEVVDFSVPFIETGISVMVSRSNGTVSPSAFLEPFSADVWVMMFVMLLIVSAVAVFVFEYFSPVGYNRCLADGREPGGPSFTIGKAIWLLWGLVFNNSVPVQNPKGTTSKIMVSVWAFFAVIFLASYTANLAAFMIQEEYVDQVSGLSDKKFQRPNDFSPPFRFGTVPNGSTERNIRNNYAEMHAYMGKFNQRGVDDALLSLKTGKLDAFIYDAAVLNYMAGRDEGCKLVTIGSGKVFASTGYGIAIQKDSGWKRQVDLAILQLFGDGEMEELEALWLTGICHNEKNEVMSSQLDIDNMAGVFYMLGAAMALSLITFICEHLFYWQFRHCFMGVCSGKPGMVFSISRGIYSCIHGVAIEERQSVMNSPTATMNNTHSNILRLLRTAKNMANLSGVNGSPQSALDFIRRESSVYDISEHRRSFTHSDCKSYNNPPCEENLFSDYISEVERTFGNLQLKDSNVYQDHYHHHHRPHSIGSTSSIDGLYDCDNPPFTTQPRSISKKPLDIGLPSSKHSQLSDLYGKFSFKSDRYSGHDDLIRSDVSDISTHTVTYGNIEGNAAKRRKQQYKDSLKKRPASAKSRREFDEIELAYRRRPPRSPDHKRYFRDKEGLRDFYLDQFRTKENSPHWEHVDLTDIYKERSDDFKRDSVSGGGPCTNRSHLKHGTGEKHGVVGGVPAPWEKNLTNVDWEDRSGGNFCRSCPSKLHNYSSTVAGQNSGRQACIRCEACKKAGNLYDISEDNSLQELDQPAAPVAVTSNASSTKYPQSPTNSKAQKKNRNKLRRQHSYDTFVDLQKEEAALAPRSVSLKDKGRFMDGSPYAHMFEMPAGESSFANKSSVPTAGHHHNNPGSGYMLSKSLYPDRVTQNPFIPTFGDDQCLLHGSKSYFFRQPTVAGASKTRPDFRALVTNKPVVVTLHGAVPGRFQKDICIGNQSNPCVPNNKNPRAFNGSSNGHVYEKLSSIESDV
# Chain of GluN1/GluN2D NMDA receptor (Q62645 28-1323, other chains not shown): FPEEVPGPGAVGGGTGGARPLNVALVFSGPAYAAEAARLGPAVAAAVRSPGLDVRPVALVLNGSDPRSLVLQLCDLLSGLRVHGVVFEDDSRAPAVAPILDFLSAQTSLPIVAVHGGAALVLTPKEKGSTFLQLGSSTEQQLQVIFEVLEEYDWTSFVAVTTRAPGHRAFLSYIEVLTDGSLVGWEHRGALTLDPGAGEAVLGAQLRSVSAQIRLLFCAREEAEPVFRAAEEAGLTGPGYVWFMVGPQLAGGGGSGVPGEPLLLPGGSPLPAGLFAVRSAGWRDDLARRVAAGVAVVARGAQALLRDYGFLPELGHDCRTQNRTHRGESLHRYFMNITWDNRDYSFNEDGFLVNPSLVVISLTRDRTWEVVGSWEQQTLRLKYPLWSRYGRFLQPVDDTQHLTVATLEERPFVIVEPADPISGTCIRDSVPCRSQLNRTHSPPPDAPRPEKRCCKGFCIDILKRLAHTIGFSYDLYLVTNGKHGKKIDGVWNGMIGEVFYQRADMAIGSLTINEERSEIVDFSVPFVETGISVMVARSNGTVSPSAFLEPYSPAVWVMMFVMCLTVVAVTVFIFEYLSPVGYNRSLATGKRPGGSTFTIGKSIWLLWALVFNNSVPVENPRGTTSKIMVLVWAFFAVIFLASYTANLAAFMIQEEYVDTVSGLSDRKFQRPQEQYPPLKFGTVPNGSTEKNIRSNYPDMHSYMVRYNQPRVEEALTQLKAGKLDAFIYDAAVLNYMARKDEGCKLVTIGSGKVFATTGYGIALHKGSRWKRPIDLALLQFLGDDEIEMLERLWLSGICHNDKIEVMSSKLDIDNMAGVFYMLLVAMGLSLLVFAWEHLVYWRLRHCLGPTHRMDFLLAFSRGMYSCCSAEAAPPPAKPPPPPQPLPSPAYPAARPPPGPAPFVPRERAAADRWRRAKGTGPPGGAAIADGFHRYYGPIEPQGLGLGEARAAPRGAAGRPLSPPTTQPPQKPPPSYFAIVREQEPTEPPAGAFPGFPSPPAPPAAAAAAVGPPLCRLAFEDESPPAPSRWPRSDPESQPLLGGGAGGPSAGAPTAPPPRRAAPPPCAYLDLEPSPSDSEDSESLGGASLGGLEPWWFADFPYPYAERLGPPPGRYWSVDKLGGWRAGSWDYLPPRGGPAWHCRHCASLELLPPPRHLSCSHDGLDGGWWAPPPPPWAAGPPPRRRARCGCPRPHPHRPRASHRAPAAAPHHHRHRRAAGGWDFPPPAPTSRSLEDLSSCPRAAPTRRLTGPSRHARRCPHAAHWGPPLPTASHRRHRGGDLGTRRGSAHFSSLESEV
# Chain of GluN1/GluN2C NMDA receptor (Q00961 20-1237, other chains not shown): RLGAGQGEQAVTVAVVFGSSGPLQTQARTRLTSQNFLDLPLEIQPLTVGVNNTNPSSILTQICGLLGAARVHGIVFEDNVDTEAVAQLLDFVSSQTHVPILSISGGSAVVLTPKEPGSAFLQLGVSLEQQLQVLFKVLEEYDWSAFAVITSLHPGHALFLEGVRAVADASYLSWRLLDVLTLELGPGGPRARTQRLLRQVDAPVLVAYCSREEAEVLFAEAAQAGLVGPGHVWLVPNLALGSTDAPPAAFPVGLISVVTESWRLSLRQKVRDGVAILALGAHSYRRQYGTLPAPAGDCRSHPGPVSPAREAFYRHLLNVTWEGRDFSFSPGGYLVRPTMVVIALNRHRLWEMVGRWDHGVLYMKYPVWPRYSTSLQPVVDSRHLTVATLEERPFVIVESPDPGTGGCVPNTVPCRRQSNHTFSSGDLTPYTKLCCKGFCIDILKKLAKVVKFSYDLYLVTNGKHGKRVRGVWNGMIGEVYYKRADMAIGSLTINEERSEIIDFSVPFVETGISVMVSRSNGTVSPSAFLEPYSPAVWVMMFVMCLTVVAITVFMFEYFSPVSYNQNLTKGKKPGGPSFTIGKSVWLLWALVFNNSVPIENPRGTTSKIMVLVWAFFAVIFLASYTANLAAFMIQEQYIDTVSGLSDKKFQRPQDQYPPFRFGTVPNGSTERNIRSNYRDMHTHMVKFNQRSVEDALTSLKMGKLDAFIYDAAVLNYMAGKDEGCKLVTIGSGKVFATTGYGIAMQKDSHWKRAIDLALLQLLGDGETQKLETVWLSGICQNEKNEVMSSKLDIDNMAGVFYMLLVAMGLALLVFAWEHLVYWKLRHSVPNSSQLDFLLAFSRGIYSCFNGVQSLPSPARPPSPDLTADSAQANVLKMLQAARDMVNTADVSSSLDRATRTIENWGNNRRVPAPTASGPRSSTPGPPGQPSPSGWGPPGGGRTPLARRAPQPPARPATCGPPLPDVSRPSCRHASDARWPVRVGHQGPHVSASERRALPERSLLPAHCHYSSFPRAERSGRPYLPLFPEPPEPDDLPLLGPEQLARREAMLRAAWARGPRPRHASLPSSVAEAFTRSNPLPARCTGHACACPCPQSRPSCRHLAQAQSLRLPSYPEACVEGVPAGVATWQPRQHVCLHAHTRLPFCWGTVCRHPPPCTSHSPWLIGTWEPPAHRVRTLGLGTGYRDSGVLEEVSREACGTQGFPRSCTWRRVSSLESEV
structure (smiles),measurement,setting,value
"O=C(O)c1cc2cc(Br)ccc2c(Br)c1O [UBP552, 1,6-Dibromo-2-hydroxy-3-naphthoic acid]",% Max. Inh. GluN1/GluN2A,[1]; [8],105.6 ± 4.3%
same,IC50,[1]; [9],6.29 ± 0.88 µM
same,IC50,"[1]; [Gly] 10 μM, [L-Glu] 2.0 μM",5.05 ± 0.73 µM
same,IC50,"[1]; [Gly] 10 μM, [L-Glu] 300 μM",8.58 ± 0.84 µM
same,IC50,"[1]; [Gly] 300 μM, [L-Glu] 10 μM",10 ± 1.93 µM
same,IC50,"[1]; [Gly] 300 μM, [L-Glu] 300 μM",15.5 ± 1.73 µM
same,% Max. Inh. GluN1/GluN2D,[2]; [8],103.6 ± 2.2%
same,effect on oocytes expressing GluN1/GluN2D receptors without agonists,[2]; 100 μM compound in the absence of L-glutamate and glycine,no detectable effect
same,IC50,[2]; [9],3.35 ± 0.18 µM
same,IC50,"[2]; [Gly] 10 μM, [L-Glu] 0.3 μM",6.26 ± 0.58 µM
same,IC50,"[2]; [Gly] 10 μM, [L-Glu] 300 μM",3.35 ± 0.82 µM
same,IC50,"[2]; [Gly] 300 μM, [L-Glu] 10 μM",3.73 ± 0.75 µM
same,IC50,"[2]; [Gly] 300 μM, [L-Glu] 300 μM",4.85 ± 0.27 µM
same,decrease of IC50 values,"[2]; increasing L-glutamate from 0.3 μM to 10 μM or to 300 μM, p < 0.05",46%
same,antagonist activity at AMPA receptors,AMPA receptors,has antagonist activity
same,ability to fully inhibit receptor responses,[3]; all GluN1/GluN2A-D receptors,able to fully inhibit all receptor responses
same,inhibition of receptor responses in the absence of the NTD,[4]; NTD deleted on GluN1 and GluN2A (Figure 4C),still able to inhibit
same,effect of NTD deletion on inhibitory potency,[4]; compared with wild-type GluN1/GluN2A,increased the potency
same,% Max. Inh. GluN1/GluN2B,[5],108.3 ± 2.0%
same,inhibition of receptor responses in the absence of the NTD,[6]; NTD deleted on GluN1 and GluN2D (Figure 4C),still able to inhibit
same,effect of NTD deletion on inhibitory potency,[6]; compared with wild-type GluN1/GluN2D,decreased the inhibitory potency
"O=C(O)c1cc2cc(-c3ccccc3)ccc2cc1O [UBP617, 2-hydroxy-6-phenyl-3-naphthoic acid]",% Max. Inh. GluN1/GluN2A,[1]; [8],71.5 ± 6.4C^c-iHI %
same,% Max. Inh. GluN1/GluN2B,[5],56.8 ± 5.2^c-ic-ic-ic-iI %
"O=C(O)c1cc2cc(-c3ccccc3)ccc2c(I)c1O [UBP619, 2-hydroxy-1-iodo-6-phenyl-3-naphthoic acid]",% Max. Inh. GluN1/GluN2C,[7],77.3 ± 5.0^EHI %
same,% Max. Inh. GluN1/GluN2A,[1]; [8],78.8 ± 2.5^CHI %
same,% Max. Inh. GluN1/GluN2D,[2]; [8],97.0 ± 2.2%
same,% Max. Inh. GluN1/GluN2B,[5],82.1 ± 3.1%
"O=C(O)c1cc2cc(Br)ccc2c(I)c1O [UBP620, 6-bromo-2-hydroxy-1-iodo-3-naphthoic acid]",% Max. Inh. GluN1/GluN2C,[7],96.1 ± 2.3%
same,% Max. Inh. GluN1/GluN2A,[1]; [8],90% and 90.5 ± 7.4%
same,% Max. Inh. GluN1/GluN2D,[2]; [8],107.1 ± 4.3%
same,% Max. Inh. GluN1/GluN2B,[5],90% and 90.6 ± 10.7%
"O=C(O)c1cc(Br)c2ccc(Br)cc2c1 [UBP628, 1,6-Dibromo-3-naphthoic acid]",% Max. Inh. GluN1/GluN2C,[7],103.0 ± 7.1%
same,% Max. Inh. GluN1/GluN2A,[1]; [8],104.3 ± 4.3%
same,fold lower potency than UBP552 at GluN1/GluN2A,"[1]; from IC50 values, Table 1",3 fold
same,% Max. Inh. GluN1/GluN2D,[2]; [8],112.4 ± 21.3%
same,fold lower potency than UBP552 for GluN1/GluN2D,"[2]; from IC50 values, Table 1",33 fold
same,% Max. Inh. GluN1/GluN2B,[5],84.4 ± 12.5%
"Oc1ccc2cc(Br)ccc2c1Br [UBP644, 1,6-dibromo-2-naphthol]",Inhibitory activity at NMDA receptors (Figure 2),"[3]; compound at 100 μM, GluN1/GluN2A-D, 10 μM L-glutamate plus 10 μM glycine",virtually inactive; also recorded: eliminated activity
